Our source for the IC50 values is US20240254132A1, “COMPOUNDS, COMPOSITIONS AND METHODS” (Denali Therapeutics Inc., priority 2021, published 2024).

This assay has as its system IL-1β secretion, THP-1 cells. As to the kind of experiment: IL-1β secretion assay in PMA-differentiated THP-1 cells (LPS + nigericin stimulation, IL-1β ELISA). The format is cell-based. As to conditions: LPS 25 ng/mL, IL-1β by ELISA. The method, then:
Compounds as provided herein were tested in the following assay. Cell culture medium employed contained RPMI 1640 medium (89%), FBS (10%), Pen/Strep (1%), and 2-mercaptoethanol (0.05 mm). Freezing medium was made up of 90% FBS and 10% DMSO. THP-1 cells were removed from the liquid nitrogen and placed into a 37° C. water bath to thaw, until signs of ice dissipated. The cells were then added to 9 mL of warm cell culture medium and centrifuged for 5 minutes at 1000 rpm. The supernatant was discarded, and the cells were resuspended in new cell culture medium. THP-1 cells were then split and cultured in the cell culture medium, being passaged every 2-3 days with the cell density will be maintained between 5×10^5 and 1.5×10^6 viable cells/mL.
Procedure for […], Secretion Assay in 384-Well Plates
PMA was dissolved in DMSO to make a stock solution at 5 mg/mL and stored in 10 μl aliquots at −20° C. for single use. PMA is added to normal growth medium. LPS was diluted with 1 mL of water solution to provide a 1 mg/mL stock solution and stored in 15 μl aliquots at −20° C. for single use. Nigericin is diluted in ice cold 100% ethanol to 5 mg/mL (6.7 mM) and stored in 75 μL aliquots at −20° C. for single use. Serum-free media contains RPMI 1640 medium (99%), Pen/Strep (1%), and 2-mercaptoethanol (0.05 mM). The two control conditions used to qualify and normalize test compound dose-response curves were as follows: High Control=25 ng/mL LPS, 5 μM Nigericin, 0.5% DMSO, Low Control=25 ng/mL, LPS, 0.5% DMSO.
THP-1 cells were diluted to provide a suspension at a concentration of 1.0×10^6 cells/mL with the total volume of suspension required to enable the desired number of assay plates. The growth media was supplemented with PMA (5 ng/mL final concentration) and the cells were incubated at 37° C. under a humidified atmosphere of 5% CO2 for 40 h.
All media was carefully aspirated from each culture flask. The cells were washed carefully with 1×DPBS. The cells were then briefly digested with trypsin LE for 5 minutes at 23° C. and immediately resuspended in cell growth media. After resuspension, the cells were centrifuged at 1000 rpm for 3 minutes and the supernatant was discarded. The cells were resuspended in DPBS and once again centrifuged at 1000 rpm for 5 minutes. The supernatant was discarded and the cell pellet was resuspended in serum-free media supplemented with LPS (25 ng/mL final concentration) to enable the distribution of 30K THP-1 cells within 45 μL of media into each well of 384-well PDL-coated plates. The 384-well plates were then incubated at 37° C. under a humidified atmosphere of 5% CO2 for 2 h. Following this period, test compounds were dispensed by Tecan across the desired concentration range with all wells normalized to a final 0.5% DMSO concentration. The plates were then incubated at 37° C. under a humidified atmosphere of 5% CO2 for 1 h. Following this period, 5 μL of the 5 mg/mL nigericin stock solution was added to each of the appropriate wells and plates were centrifuged at 1000 rpm for 30 seconds. The plates were the immediately reintroduced to the incubator at 37° C. under a humidified atmosphere of 5% CO2 for 2 h. After this time, 35 μL/well of supernatant was collected and transferred into v-bottom plate and centrifuged at 1000 rpm for 1 minute. These supernatant aliquots were analyzed using an IL-Iβ detection kit as described below. If needed, the test samples could be snap frozen and stored at −80° C. until analyzed.
To prepare each ELISA plate, capture antibody (mAb Mt175) was diluted with PBS to a final concentration of 2 μg/mL and then 20 μL of this solution was added to each well of the ELISA plate. Each plate was allowed to incubate overnight at 4° C. The next day, the capture antibody solution was removed and discarded. Each ELISA plate was washed 4 times with PBST followed by the addition of 25 μL/well of blocking buffer (Licor-927-40010) supplemented with 0.1% Tween 20. […]
Background: In an ELISA, binding on a coated surface is turned into a signal by an enzyme label.

[1] abbreviates: Homo sapiens, THP-1, class symbol.
The mark [2] stands for this setting: Homo sapiens, THP-1, numeric value.

Structures are written as SMILES.

A word on the IC50: it is the concentration needed to halve the response being measured. Regarding `O=C(CN1C(=O)c2ccc(Br)cc2C2(CC(F)(F)C2)C1=O)Nc1ncc(F)cn1` [Example 10, 2-(6′-bromo-1,1-difluoro-1′,3′-dioxospiro[cyclobutane-3,4′-isoquinoline]-2′-yl)-N-(5-fluoropyrimidin-2-yl)acetamide], the IC50 runs as follows: under setting [1], 10000 to 15000 nM; under setting [2], 13100 nM.

As for `O=C(CN1C(=O)c2ccc(Br)cc2C2(CC2)C1=O)Nc1ncc(F)cn1` [Example 33, 2-(6′-bromo-1′,3′-dioxospiro[cyclopropane-1,4′-isoquinoline]-2′-yl)-N-(5-fluoropyrimidin-2-yl)acetamide], the half-maximal inhibitory concentration (IC50) reads like this: under setting [1], < 10000 nM; under setting [2], 184 nM.

As to `O=C(CN1C(=O)c2ccc(C(F)(F)F)c(F)c2C2(CC2)C1=O)Nc1ncc(F)cn1` [Example 16, 2-[5′-fluoro-1′,3′-dioxo-6′-(trifluoromethyl)spiro[cyclopropane-1,4′-isoquinoline]-2′-yl]-N-(5-fluoropyrimidin-2-yl)acetamide], the IC50 is, setting by setting: under setting [1], < 10000 nM; under setting [2], 918 nM.

For `C[C@H]1C[C@@]12C(=O)N(CC(=O)Nc1ncc(F)cn1)C(=O)c1ccc(Br)cc12` (single isomer, unassigned) [Example 14, N-(5-fluoropyrimidin-2-yl)-2-[(1r,2s)-6′-bromo-2-methyl-1′,3′-dioxospiro[cyclopropane-1,4′-isoquinoline]-2′-yl]acetamide], the half-maximal inhibitory concentration (IC50) is, setting by setting: (class symbol) < 10000 nM; (numeric value) 6660 nM.

For the compound `Cc1cnc(NC(=O)CN2C(=O)c3ccc(Br)c(F)c3C3(CC3)C2=O)nc1` [Example 20, 2-(6′-bromo-5′-fluoro-1′,3′-dioxospiro[cyclopropane-1,4′-isoquinoline]-2′-yl)-N-(5-methylpyrimidin-2-yl)acetamide], the IC50 is < 10000 nM under setting [1] and 261 nM under setting [2].

Take `N#Cc1cnc(NC(=O)CN2C(=O)c3ccc(Br)c(F)c3C3(CC3)C2=O)c(F)c1` [Example 18, 2-(6′-bromo-5′-fluoro-1′,3′-dioxospiro[cyclopropane-1,4′-isoquinoline]-2′-yl)-N-(5-cyano-3-fluoropyridin-2-yl)acetamide]: the concentration for half-maximal inhibition (IC50) runs as follows: under setting [1], < 10000 nM; under setting [2], 331 nM.

On to `O=C(CN1C(=O)c2ccc(Br)c(F)c2C2(CC2)C1=O)Nc1ncc(F)cn1` [Example 29, 2-(6′-bromo-5′-fluoro-1′,3′-dioxospiro[cyclopropane-1,4′-isoquinoline]-2′-yl)-N-(5-fluoropyrimidin-2-yl)acetamide], for which the half-inhibitory concentration (IC50) under setting [1] was < 10000 nM and the IC50 under setting [2] worked out at 99 nM.

Take `CC(C(=O)Nc1ncc(F)cn1)N1C(=O)c2ccc(Br)c(F)c2C2(CC2)C1=O` (stereo not drawn) [Example 21, 2-(6′-bromo-5′-fluoro-1′,3′-dioxospiro[cyclopropane-1,4′-isoquinoline]-2′-yl)-N-(5-fluoropyrimidin-2-yl)propanamide]: the IC50 runs as follows: under setting [1], < 10000 nM; under setting [2], 936 nM.

With `N#Cc1cnc(NC(=O)CN2C(=O)c3ccc(Br)c(F)c3C3(CC3)C2=O)nc1` [Example 26, 2-(6′-bromo-5′-fluoro-1′,3′-dioxospiro[cyclopropane-1,4′-isoquinoline]-2′-yl)-N-(5-cyanopyrimidin-2-yl)acetamide], the half-maximal inhibitory concentration (IC50) reads like this: under setting [1], < 10000 nM; under setting [2], 90 nM.

`N#Cc1cnc(NC(=O)CN2C(=O)c3ccc(Br)cc3C3(CC3)C2=O)nc1` [Example 31, 2-(6′-bromo-1′,3′-dioxospiro[cyclopropane-1,4′-isoquinoline]-2′-yl)-N-(5-cyanopyrimidin-2-yl)acetamide]: the IC50 is < 10000 nM under setting [1] and 208 nM under setting [2].

Take `CC1(C)C(=O)N(CC(=O)Nc2ncc(F)cn2)C(=O)c2ccc(Br)cc21` [Example 7]: the IC50 by setting is: under setting [1], < 10000 nM; under setting [2], 269 nM.

Turning to `CC1CC12C(=O)N(CC(=O)Nc1ncc(F)cn1)C(=O)c1ccc(Br)cc12` (stereo not drawn) [Example 25, 2-(6′-bromo-2-methyl-1′,3′-dioxospiro[cyclopropane-1,4′-isoquinoline]-2′-yl)-N-(5-fluoropyrimidin-2-yl)acetamide], the 50% inhibitory concentration (IC50) by setting is: under setting [1], < 10000 nM; under setting [2], 391 nM.

As to `CCC(C(=O)Nc1ncc(F)cn1)N1C(=O)c2ccc(Br)cc2C2(CC2)C1=O` (stereo not drawn) [Example 23, 2-(6′-bromo-1′,3′-dioxospiro[cyclopropane-1,4′-isoquinoline]-2′-yl)-N-(5-fluoropyrimidin-2-yl)butanamide], the half-inhibitory concentration (IC50) is, setting by setting: under setting [1], < 10000 nM; under setting [2], 2170 nM.

`O=C(CN1C(=O)c2ccc(C(F)(F)F)cc2C2(CC2)C1=O)Nc1ncc(F)cn1` [Example 15, 2-[1′,3′-dioxo-6′-(trifluoromethyl)spiro[cyclopropane-1,4′-isoquinoline]-2′-yl]-N-(5-fluoropyrimidin-2-yl)acetamide]: the IC50 is, setting by setting: under setting [1], < 10000 nM; under setting [2], 893 nM.

As for `O=C(CN1C(=O)c2ccc(Br)cc2C2(CCC2)C1=O)Nc1ncc(F)cn1` [Example 8, 2-(6′-bromo-1′,3′-dioxospiro[cyclobutane-1,4′-isoquinoline]-2′-yl)-N-(5-fluoropyrimidin-2-yl)acetamide], the 50% inhibitory concentration (IC50) reads like this: under setting [1], < 10000 nM; under setting [2], 388 nM.

Consider `O=C(CN1C(=O)c2ccc(Br)cc2C2(CC2)C1=O)N[C@@H]1CCCN(C2CCC2)C1` [Example 9, 2-(6′-bromo-1′,3′-dioxospiro[cyclopropane-1,4′-isoquinoline]-2′-yl)-N-[(3R)-1-cyclobutylpiperidin-3-yl]acetamide], for which the 50% inhibitory concentration (IC50) was < 10000 nM under setting [1] and 307 nM under setting [2].

As for `O=C(CN1C(=O)c2ccc(Br)cc2C2(CC2)C1=O)Nc1ncc(Cl)cn1` [Example 32, 2-(6′-bromo-1′,3′-dioxospiro[cyclopropane-1,4′-isoquinoline]-2′-yl)-N-(5-chloropyrimidin-2-yl)acetamide], the half-inhibitory concentration (IC50) under setting [1] was < 10000 nM and the half-inhibitory concentration (IC50) under setting [2] was 137 nM.

With `C[C@H]1C[C@@]12C(=O)N(CC(=O)Nc1ncc(F)cn1)C(=O)c1ccc(Br)cc12` (single isomer, unassigned) [Example 13, N-(5-fluoropyrimidin-2-yl)-2-[(1r,2s)-6′-bromo-2-methyl-1′,3′-dioxospiro[cyclopropane-1,4′-isoquinoline]-2′-yl]acetamide], the IC50 is, setting by setting: under setting [1], < 10000 nM; (numeric value) 286 nM.

Consider `O=C(CN1C(=O)c2ccc(C3CC3)c(F)c2C2(CC2)C1=O)Nc1ncc(F)cn1` [Example 11, 2-(6′-cyclopropyl-5′-fluoro-1′,3′-dioxospiro[cyclopropane-1,4′-isoquinoline]-2′-yl)-N-(5-fluoropyrimidin-2-yl)acetamide], for which the IC50 is < 10000 nM under setting [1] and 332 nM under setting [2].

Regarding `O=C(CN1C(=O)c2ccc(Br)c(F)c2C2(CC2)C1=O)Nc1ncc2cn[nH]c2n1` [Example 24, 2-(6′-bromo-5′-fluoro-1′,3′-dioxospiro[cyclopropane-1,4′-isoquinoline]-2′-yl)-N-(1H-pyrazolo[3,4-d]pyrimidin-6-yl)acetamide], the 50% inhibitory concentration (IC50) runs as follows: under setting [1], < 10000 nM; under setting [2], 88 nM.

For the compound `O=C(CN1C(=O)c2ccc(Br)cc2C2(COC2)C1=O)Nc1ncc(F)cn1` [Example 19, 2-(6-bromo-1,3-dioxospiro[isoquinoline-4,3′-oxetane]-2-yl)-N-(5-fluoropyrimidin-2-yl)acetamide], the half-inhibitory concentration (IC50) is, setting by setting: under setting [1], < 10000 nM; under setting [2], 4460 nM.
